Data set [1] is described as follows: In vitro metabolic stability in CES1−/− mouse plasma. Format: in vitro ADME. The conditions noted are these: C57BL/6, mouse.
Data set [2] is described as follows: In vitro metabolic stability in CES1−/− mouse brain homogenate. The conditions noted are these: for remaining at 1 h, 10 μM: C57BL/6, mouse; for Stability in mouse (% remaining at 1 h) Brain: 10 μM, 37 °C, mean ± std error, n = 3. It counts as in vitro ADME.
Data set [3] in a line: In vitro metabolic stability in CES1−/− mouse liver homogenate. Format: in vitro ADME. The conditions noted are these: C57BL/6, mouse.
Data set [4] is described as follows: Time-dependent oral PK in CES1−/− mice. It counts as in vivo, mouse. The conditions noted are these: PO 10 mg/kg DPTIP equivalent.
Data set [5] is classed as in vivo, mouse. The conditions noted are these: high resolution mass spectrometry, after oral dosing.
The nature of another data set: Single time-point. Format: in vivo, mouse. The note with it: CES1−/− mice, PO 10 mg/kg DPTIP equivalent, 2 h post dose.
Another data set deals with T1, nSMase2 (Mus musculus, UniProt Q9JJY3).
T1 sequence (Q9JJY3 1-655): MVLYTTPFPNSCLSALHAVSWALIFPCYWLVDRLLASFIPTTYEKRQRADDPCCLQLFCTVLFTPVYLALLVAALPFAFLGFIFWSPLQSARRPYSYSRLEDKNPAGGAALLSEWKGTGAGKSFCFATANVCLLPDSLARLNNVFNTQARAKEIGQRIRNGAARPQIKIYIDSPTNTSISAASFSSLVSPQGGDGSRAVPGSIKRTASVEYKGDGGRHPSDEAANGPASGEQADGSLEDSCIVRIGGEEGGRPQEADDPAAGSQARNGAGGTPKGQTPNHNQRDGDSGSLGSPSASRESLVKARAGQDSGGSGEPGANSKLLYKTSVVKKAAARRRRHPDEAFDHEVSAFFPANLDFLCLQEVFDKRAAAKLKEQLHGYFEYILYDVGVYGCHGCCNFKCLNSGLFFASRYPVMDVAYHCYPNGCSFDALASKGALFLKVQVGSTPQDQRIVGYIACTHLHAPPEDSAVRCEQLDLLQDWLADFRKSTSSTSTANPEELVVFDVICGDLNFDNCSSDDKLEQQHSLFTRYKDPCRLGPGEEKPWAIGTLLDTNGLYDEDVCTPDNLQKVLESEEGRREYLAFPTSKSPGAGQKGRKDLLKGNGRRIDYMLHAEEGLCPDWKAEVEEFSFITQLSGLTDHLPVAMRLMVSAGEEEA
Kind of data set: nSMase2 activity in striata of IL-1β-injected mice. Format: in vivo. The conditions noted are these: PO 3 and 10 mg/kg DPTIP equivalent, dose dependent, 4 h post IL-1β.

For data set [6] the following is noted: rats, dose dependent; cited from earlier work.

Where only a bound is given, the exact number is not on record here.

As to `COc1cc(-c2nc(-c3ccccc3)c(-c3cccs3)[nH]2)cc(OC)c1OC(=O)N1CCC(N2CCCCC2)CC1` [Compound P1, 2,6-Dimethoxy-4-(4-phenyl-5-(thiophen-2-yl)-1H-imidazol-2-yl)phenyl [1,4’-bipiperidine]-1’-carboxylate], the share remaining (as a rule, the share of the starting amount still present when the sample was taken) at 1 h, 10 μM in data set [1] (plasma) is over 75%; in data set [2] (brain homogenate), at least 50%; in data set [3] (tissue homogenate) it was over 75%. Moreover, the “AUC0-t of intact prodrug in brain” value in data set [4] stood at 494.6 pmol·h/g.

On to `CCCCCC(=O)Oc1c(OC)cc(-c2nc(-c3ccccc3)c(-c3cccs3)[nH]2)cc1OC` [Compound P2, 2,6-Dimethoxy-4-(4-phenyl-5-(thiophen-2-yl)-1H-imidazol-2-yl)phenyl hexanoate], for which the share remaining at 1 h, 10 μM in data set [1] (CES1−/− mouse plasma) is under 30%; in data set [2] (CES1−/− mouse brain homogenate), at least 50%; in data set [3] (CES1−/− mouse liver homogenate), under 25%.

Regarding `COc1cc(-c2nc(-c3ccccc3)c(-c3cccs3)[nH]2)cc(OC)c1OC(C)=O` [Compound P3, 2,6-Dimethoxy-4-(4-phenyl-5-(thiophen-2-yl)-1H-imidazol-2-yl)phenyl acetate], the fraction remaining at 1 h, 10 μM in data set [1] (CES1−/− mouse plasma) was under 30%; in data set [3] (CES1−/− mouse liver homogenate), under 25%. Also, in data set [2] (CES1−/− mouse brain homogenate), the “Stability in mouse (% remaining at 1 h) Brain” value is recorded as “completely metabolized”.

For `COc1cc(-c2nc(-c3ccccc3)c(-c3cccs3)[nH]2)cc(OC)c1OC(=O)C(C)(C)C` [Compound P4, 2,6-Dimethoxy-4-(4-phenyl-5-(thiophen-2-yl)-1H-imidazol-2-yl)phenyl pivalate], the share remaining at 1 h, 10 μM in data set [1] (CES1−/− mouse plasma) is under 30%; in data set [2] (CES1−/− mouse brain homogenate) it was over 75%; in data set [3] (CES1−/− mouse liver homogenate), under 25%.

As for `COc1cc(-c2nc(-c3ccccc3)c(-c3cccs3)[nH]2)cc(OC)c1OC(=O)N(C)C` [Compound P5, 2,6-Dimethoxy-4-(4-phenyl-5-(thiophen-2-yl)-1H-imidazol-2-yl)phenyl dimethylcarbamate], the amount remaining at 1 h, 10 μM in data set [1] (plasma), in data set [2] (brain homogenate) and in data set [3] (tissue homogenate) was over 75% in each case.

Turning to `COc1cc(-c2nc(-c3ccccc3)c(-c3cccs3)[nH]2)cc(OC)c1OC(=O)OC(OC(=O)C(C)(C)C)c1ccccc1` (centres unmarked) [Compound P6, (((2,6-Dimethoxy-4-(4-phenyl-5-(thiophen-2-yl)-1H-imidazol-2-yl)phenoxy)carbonyl)oxy)(phenyl)methyl pivalate], the values for the fraction remaining at 1 h, 10 μM in data set [1] (CES1−/− mouse plasma), in data set [2] (CES1−/− mouse brain homogenate) and in data set [3] (CES1−/− mouse liver homogenate) were over 75%, at least 50% and over 75%, respectively.

In data set [3] (CES1−/− mouse liver homogenate), `CCC1CCCC(CC)N1C(=O)Oc1c(OC)cc(-c2nc(-c3ccccc3)c(-c3cccs3)[nH]2)cc1OC` (centres unmarked) [Compound P10, 2,6-Dimethoxy-4-(5-phenyl-4-(thiophen-2-yl)-1H-imidazol-2-yl)phenyl 2,6-diethylpiperidine-1-carboxylate] displayed a share remaining at 1 h, 10 μM of over 50%.

With `COc1cc(-c2nc(-c3ccccc3)c(-c3cccs3)[nH]2)cc(OC)c1OC(=O)N1C2CCCC1CC2` [Compound P12, 2,6-Dimethoxy-4-(5-phenyl-4-(thiophen-2-yl)-1H-imidazol-2-yl)phenyl 8-azabicyclo[3.2.1]octane-8-carboxylate], the amount remaining at 1 h, 10 μM in data set [3] (tissue homogenate) was over 75%.

`COc1cc(-c2nc(-c3ccccc3)c(-c3cccs3)[nH]2)cc(OC)c1OC(=O)N1C2CCC1CC(N1CCCCC1)C2` (centres unmarked) [Compound P13, 2,6-Dimethoxy-4-(5-phenyl-4-(thiophen-2-yl)-1H-imidazol-2-yl)phenyl 3-(piperidin-1-yl)-8-azabicyclo[3.2.1]octane-8-carboxylate] returned a fraction remaining at 1 h, 10 μM in data set [3] (tissue homogenate) of over 75%.

As for `COc1cc(-c2nc(-c3ccccc3)c(-c3cccs3)[nH]2)cc(OC)c1OCOP(=O)(O)O` [Compound P15, (2,6-Dimethoxy-4-(4-phenyl-5-(thiophen-2-yl)-1H-imidazol-2-yl)phenoxy) methyl dihydrogen phosphate], the “Stability in mouse (% remaining at 1 h) Brain” value in data set [2] (CES1−/− mouse brain homogenate) is given as “completely metabolized”. The compound also came in with a fraction remaining at 1 h, 10 μM in data set [3] (CES1−/− mouse liver homogenate) of under 25%.

On to `COc1cc(-c2nc(-c3ccccc3)c(-c3cccs3)[nH]2)cc(OC)c1OCOP(=O)(O)OCOC(=O)OC(C)C` [Compound P16, ((((2,6-Dimethoxy-4-(4-phenyl-5-(thiophen-2-yl)-1H-imidazol-2-yl)phenoxy)methoxy)(hydroxy)phosphoryl)oxy)methyl isopropyl carbonate], for which the share remaining at 1 h, 10 μM in data set [2] (CES1−/− mouse brain homogenate) is over 75%; in data set [3] (CES1−/− mouse liver homogenate), under 25%.

For `COc1cc(-c2nc(-c3ccccc3)c(-c3cccs3)[nH]2)cc(OC)c1OC(=O)C1=CN(C)C=CC1` [Compound P17, 2,6-Dimethoxy-4-(4-phenyl-5-(thiophen-2-yl)-1H-imidazol-2-yl)phenyl 1-methyl-1,4-dihydropyridine-3-carboxylate], the “Putative oxidized pyridinium metabolite in brain and plasma” value in data set [5] was “negligible quantities”. Moreover, in “Single time-point”, the “Brain level of intact prodrug” value was found to be 3.0 nM and the “Plasma level of intact prodrug” value worked out at 3.9 nM.

As to `CCC1CC(N2CCCCC2)CC(CC)N1C(=O)Oc1c(OC)cc(-c2nc(-c3ccccc3)c(-c3cccs3)[nH]2)cc1OC` (centres unmarked) [Compound P18, 2,6-Dimethoxy-4-(5-phenyl-4-(thiophen-2-yl)-1H-imidazol-2-yl)phenyl 2’,6’-diethyl-[1,4’-bipiperidine]-1’-carboxylate], the fraction remaining at 1 h, 10 μM in data set [1] (plasma), in data set [2] (brain homogenate) and in data set [3] (tissue homogenate) was over 75% each time. The “Effect on heightened nSMase2 activity in striata caused by IL-1β” value at nSMase2 was “normalized”. Further, the “AUC0-t of intact prodrug in brain” value in data set [4] is 179 pmol·h/g.

On to `CC(C)c1cccc(C(C)C)c1OCOP(=O)(O)O` [fospropofol], for which the “Improvement of oral bioavailability” value in data set [6] is on record as 20–70%.

The record behind these values is PMC9980655 (Journal of medicinal chemistry, 2022).
